Laboratory results published in ChEMBL document CHEMBL1156829 (Proc Natl Acad Sci U S A, 2008).

Experiments:
Plasmodium falciparum [1] = experiment: NOVARTIS: Inhibition of Plasmodium falciparum 3D7 (drug-susceptible) proliferation in erythrocyte-based infection assay; format: functional, organism-based; conditions: Plasmodium falciparum, 3D7
Plasmodium falciparum [2] = experiment: NOVARTIS: Inhibition of Plasmodium falciparum W2 (drug-resistant) proliferation in erythrocyte-based infection assay; format: functional, organism-based; conditions: Plasmodium falciparum, W2; read-out: EC50
[3] = NOVARTIS: Cytotoxicity against human hepatocellular carcinoma cell line (Huh7); format: toxicity, cell-based, Huh-7; conditions: Huh7 cells (hepatocellular carcinoma cell line)

Compound	EC50 (Plasmodium falciparum [1]) [µM]	EC50 (Plasmodium falciparum [2]) [µM]	CC50 [3] [µM]
CCCOc1ccc(Cc2c(C)nc3ccc(Br)cc3c2O)cc1	1.03	1.1	> 10
COc1ccc(Br)cc1S(=O)(=O)N1CCCc2ccccc21	9.95	11.5	> 100
COC(=O)c1c(-c2c(Cl)cccc2Cl)noc1C=CNc1ccccc1	> 12.5	8.79	76.8
Cc1ccc(C(=O)C(C)[n+]2ccc(N(C)C)cc2)cc1 (configuration not stated)	0.438	4.04	35.3
COc1ccc(NC(=O)/C=C/c2ccccc2Cl)cc1	> 1.25	> 1.14	> 10
OC1(c2ccc(Br)cc2)CCN(C2CCN(CCc3ccccc3)CC2)CC1	0.136	0.527	4.77
NCCNC(=O)COC(c1cccnc1)c1ccccc1Cl (configuration not stated)	> 1.25	> 1.15	> 10
CC(=O)Nc1cccc(N(C(=O)C2COc3ccccc3O2)C(C(=O)NC2CCCCC2)c2ccc(O)cc2)c1 (configuration not stated)	> 1.25	> 1.1	> 10
CCc1n(C)c2ccccc2[n+]1CC(=O)c1ccc(Br)cc1	1.66	1.1	> 10
CCCCCCN(C(=O)COc1ccc(Cl)cc1)C(CC)c1nc2ccccc2c(=O)n1-c1cccc(Cl)c1 (configuration not stated)	0.433	1.14	> 10
O=C(COc1ccc(Cl)cc1)NCc1ccc(CNc2noc3ccccc23)cc1	3.1	7.29	66.2
COC(=O)C1=C(C(=O)OC)SC(=C2C(=S)C(C)(C)N(C(=O)c3ccc([N+](=O)[O-])cc3)c3ccc(C)cc32)S1	> 0.371	> 1.15	> 10
CC(C)CNC(=O)c1cnc(NCCC2CCCN2C)nc1NC1CCCC1 (configuration not stated)	0.908	1.14	> 10
CCCCCCN(C(=O)c1ccc2ccccc2c1)C(CC)c1nc2ccccc2c(=O)n1-c1cccc(Cl)c1 (configuration not stated)	> 1.25	> 1.13	> 10
COC(=O)C1CCCCN1S(=O)(=O)c1ccc(C)cc1 (configuration not stated)	> 1.25	> 1.12	> 10
Cc1c(C)c(C)c(CNC(=S)NN)c(C)c1C	4.09	> 11.4	> 100
CCCN(CC1CC1)C(=O)C1CCCN(c2cccc3c2C(=O)N(Cc2cc(OC)c(OC)c(OC)c2)C3=O)C1 (configuration not stated)	> 1.25	1.12	> 10

Compound	EC50 (Plasmodium falciparum [1]) [µM]	EC50 (Plasmodium falciparum [2]) [µM]	CC50 [3] [µM]
O=C1N(c2ccccc2)C[C@@H]2C[C@@H](c3ccc4nonc4c3)N3CCC[C@@]123	2.37	2.5	> 22.1
COc1cc(OC)cc(C(=O)N2CCN(c3ccccn3)CC2)c1	> 1.25	> 1.13	> 10
COc1ccc(OC)c(NC(=O)c2cnn3c(C(F)(F)F)cc(-c4ccc(OC)c(OC)c4)nc23)c1	> 1.25	1.14	> 10
COc1ccc(N2CCN(C(=O)C3=C(C)C(=O)OC34CCCCC4)CC2)cc1	1.62	> 1.13	> 10
CCCCCCN(CCCCCC)CC(O)c1cc(-c2ccc(Cl)cc2)nc2c(C)cc(C)cc12 (configuration not stated)	7.13	5.94	51.9
COc1ccc(N(CCCNC(=O)CCl)C(=O)Nc2cccc(Cl)c2)cc1	> 1.6	1.15	> 10
CC(=O)Nc1ccc(-c2nc(-c3ccc(Oc4ccc(-c5[nH]c(-c6ccc(NC(C)=O)cc6)nc5-c5ccccc5)cc4)cc3)c(-c3ccccc3)[nH]2)cc1	6.95	5.59	50.1
CCOc1ccc(NC(=O)N(CCC(C)C)C(C)c2nc3ccccc3c(=O)n2-c2cccc(Cl)c2C)cc1 (configuration not stated)	1.2	1.14	> 10
O=C(CCCc1nc(-c2ccccc2)no1)NCc1cccnc1	> 1.77	1.13	> 10
CCOC(=O)c1c(NC(=O)CCC(=O)OC)sc2c1CC(C)(C)SC2	> 0.65	> 1.11	> 10
CC(C)(C)NC(=O)C(c1cccs1)N(CCCN1CCOCC1)C(=O)c1ccc(-c2ccccc2)[nH]1 (configuration not stated)	1.23	1.11	> 10
COc1ccccc1/C=C/CN1CCN(c2ccccn2)CC1	> 1.63	> 1.15	> 10
Cc1ccc(S(=O)(=O)N=C(NS(=O)(=O)c2ccc(C)cc2)c2ccccc2)cc1	> 11.2	> 11.2	> 100
O=C(O)c1ccc(NC(=O)c2ccc(N3C(=O)C4C5C=CC(C5)C4C3=O)cc2)cc1 (configuration not stated)	> 11.2	> 11.2	> 100
CCN(c1ccc(F)cc1)S(=O)(=O)c1ccc2[nH]cc(C(=O)NCCC(C)C)c(=O)c2c1	> 1.25	> 1.15	> 10
N#CC1=C(N)Oc2c3c(c4ccccc4c2C1c1ccc(F)cc1)C(c1ccc(F)cc1)C(C#N)=C(N)O3 (configuration not stated)	4.09	2.44	21.6
CC(=O)Nc1ccc2c(c1)C(=O)N(C(C(=O)NC1CCCCC1)c1ccc([N+](=O)[O-])cc1)[C@@H](c1ccccc1)C(=O)N2 (some centres not stated)	> 1.25	> 0.873	7.68
